Assay results taken from ChEMBL document CHEMBL5303573, “Mapping human microbiome drug metabolism by gut bacteria and their genes” (Nature, 2019).

How the values were obtained:
[1] = The drug is tested on Clostridium asparagiforme strain: DSM15981 for biotransformation. The drug concentrations were measured before and after a 12-h incubation by liquid-chromatography-coupled mass spectrometry (LC–MS); assay type: ADME; design: dose 2 uM, timepoint 0 vs 12 hours; conditions: enterocloster asparagiformis, 2 µM
[2] = The drug is tested on Clostridium sp. strain: fecal isolate for biotransformation. The drug concentrations were measured before and after a 12-h incubation by liquid-chromatography-coupled mass spectrometry (LC–MS); conditions: 2 µM
[3] = The drug is tested on Collinsella aerofaciens strain: ATCC25986 for biotransformation. The drug concentrations were measured before and after a 12-h incubation by liquid-chromatography-coupled mass spectrometry (LC–MS); conditions: 2 µM
[4] = The drug is tested on Bacteroides cellulosilyticus strain: DSM14838 for biotransformation. The drug concentrations were measured before and after a 12-h incubation by liquid-chromatography-coupled mass spectrometry (LC–MS); conditions: 2 µM
[5] = The drug is tested on Escherichia coli strain: BW25113 for biotransformation. The drug concentrations were measured before and after a 12-h incubation by liquid-chromatography-coupled mass spectrometry (LC–MS); conditions: 2 µM
[6] = The drug is tested on Bacteroides finegoldii strain: DSM17565 for biotransformation. The drug concentrations were measured before and after a 12-h incubation by liquid-chromatography-coupled mass spectrometry (LC–MS); conditions: 2 µM
[7] = The drug is tested on Bacteroides caccae strain: ATCC43185 for biotransformation. The drug concentrations were measured before and after a 12-h incubation by liquid-chromatography-coupled mass spectrometry (LC–MS); conditions: 2 µM
[8] = The drug is tested on Odoribacter splanchnicus strain: fecal isolate for biotransformation. The drug concentrations were measured before and after a 12-h incubation by liquid-chromatography-coupled mass spectrometry (LC–MS); conditions: 2 µM
[9] = The drug is tested on Clostridium symbiosum strain: ATCC14940 for biotransformation. The drug concentrations were measured before and after a 12-h incubation by liquid-chromatography-coupled mass spectrometry (LC–MS); conditions: 2 µM
[10] = The drug is tested on Eubacterium rectale strain: ATCC33656 for biotransformation. The drug concentrations were measured before and after a 12-h incubation by liquid-chromatography-coupled mass spectrometry (LC–MS); conditions: agathobacter rectalis, 2 µM
[11] = The drug is tested on Clostridium scindens strain: ATCC35704 for biotransformation. The drug concentrations were measured before and after a 12-h incubation by liquid-chromatography-coupled mass spectrometry (LC–MS); conditions: 2 µM
[12] = bacteroides eggerthii, 12 h, 2 µM
Description: The drug is tested on Bacteroides eggerthii strain: DSM20697 for biotransformation. The drug concentrations were measured before and after a 12-h incubation by liquid-chromatography-coupled mass spectrometry (LC–MS)

[13] = parabacteroides distasonis, 12 h, 2 µM
Description: The drug is tested on Parabacteroides distasonis strain: ATCC8503 for biotransformation. The drug concentrations were measured before and after a 12-h incubation by liquid-chromatography-coupled mass spectrometry (LC–MS)

[14] = The drug is tested on Enterococcus faecalis strain: V583 for biotransformation. The drug concentrations were measured before and after a 12-h incubation by liquid-chromatography-coupled mass spectrometry (LC–MS); conditions: 2 µM
[15] = The drug is tested on Bifidobacterium ruminantium strain: fecal isolate for biotransformation. The drug concentrations were measured before and after a 12-h incubation by liquid-chromatography-coupled mass spectrometry (LC–MS); conditions: 2 µM
[16] = parabacteroides johnsonii, 12 h, 2 µM
Description: The drug is tested on Parabacteroides johnsonii strain: DSM18315 for biotransformation. The drug concentrations were measured before and after a 12-h incubation by liquid-chromatography-coupled mass spectrometry (LC–MS)

[17] = The drug is tested on Bacteroides uniformis strain: ATCC8492 for biotransformation. The drug concentrations were measured before and after a 12-h incubation by liquid-chromatography-coupled mass spectrometry (LC–MS); conditions: 2 µM
[18] = segatella copri, 12 h, 2 µM
Description: The drug is tested on Prevotella copri strain: DSM18205 for biotransformation. The drug concentrations were measured before and after a 12-h incubation by liquid-chromatography-coupled mass spectrometry (LC–MS)

[19] = The drug is tested on Alistipes indistinctus strain: DSM22520 for biotransformation. The drug concentrations were measured before and after a 12-h incubation by liquid-chromatography-coupled mass spectrometry (LC–MS); conditions: 2 µM
[20] = bacteroides thetaiotaomicron, 12 h, 2 µM
Description: The drug is tested on Bacteroides thetaiotaomicron strain: 7330 for biotransformation. The drug concentrations were measured before and after a 12-h incubation by liquid-chromatography-coupled mass spectrometry (LC–MS)

Row | Compound | Bacterial Biotransformation [1] | Bacterial Biotransformation [2] | Bacterial Biotransformation [3] | Bacterial Biotransformation [4] | Bacterial Biotransformation [5] | Bacterial Biotransformation [6] | Bacterial Biotransformation [7] | Bacterial Biotransformation [8] | Bacterial Biotransformation [9] | Bacterial Biotransformation [10] | Bacterial Biotransformation [11] | Bacterial Biotransformation [12] | Bacterial Biotransformation [13] | Bacterial Biotransformation [14] | Bacterial Biotransformation [15] | Bacterial Biotransformation [16] | Bacterial Biotransformation [17] | Bacterial Biotransformation [18] | Bacterial Biotransformation [19] | Bacterial Biotransformation [20]
1 | COC1=C(OC)C(=O)C(CCCCCCCCCCO)=C(C)C1=O [IDEBENONE] | Compound NOT metabolized | Compound NOT metabolized | Compound NOT metabolized | Compound NOT metabolized | Compound NOT metabolized | Compound NOT metabolized | Compound metabolized | Compound metabolized | Compound NOT metabolized | Compound NOT metabolized | Compound metabolized | Compound NOT metabolized | Compound NOT metabolized | Compound NOT metabolized | Compound NOT metabolized | Compound NOT metabolized | Compound metabolized | Compound NOT metabolized | Compound metabolized | Compound NOT metabolized
2 | C#C[C@]1(OC(C)=O)CC[C@H]2[C@@H]3CCC4=CC(=O)CC[C@@H]4[C@H]3CC[C@@]21C [NORETHINDRONE ACETATE] | Compound metabolized | Compound metabolized | Compound metabolized | Compound metabolized | Compound metabolized | Compound metabolized | Compound metabolized | Compound metabolized | Compound metabolized | Compound metabolized | Compound NOT metabolized | Compound metabolized | Compound NOT metabolized | Compound NOT metabolized | Compound NOT metabolized | Compound metabolized | Compound metabolized | Compound metabolized | Compound metabolized | Compound metabolized
